Starred links: 1 amine or outer side, 2 acyl side, 3 side chain; linkers in the order of their positions; H or OH if unused. Positions of bridges follow the written chain, without caps; N, C: chain ends. Non-standard residues stand in square brackets, D forms with d. Residues, ends and D or L forms follow the SMILES beside them. *: point of attachment. Phe(4-(4-pyridyl)) = N[C@@H](Cc1ccc(-c2ccncc2)cc1)C(=O)O; Phe(3-OCH2COOH) = N[C@@H](Cc1cccc(OCC(=O)O)c1)C(=O)O; Phe(4-COOH) = N[C@@H](Cc1ccc(C(=O)O)cc1)C(=O)O; Trp(7-aza) = N[C@@H](Cc1c[nH]c2ncccc12)C(=O)O; Gly(N(CH2)3COOH) = O=C(O)CCCNCC(=O)O; X1 = CCCCCCC[C@H](N[*:1])C(=O)[*:2]; Gly(cPent) = N[C@H](C(=O)O)C1CCCC1; NMeF = CN[C@@H](Cc1ccccc1)C(=O)O; Carboxymethyl = O=C(O)C*; NMeA = CN[C@@H](C)C(=O)O
Tests used:
Assay type in all cases: cell-based
[1] = target: T1, Myostatin (Homo sapiens, UniProt O14793); experiment: Reporter gene assay for myostatin signaling in HepG2 cell line, Evaluation Procedure (1), myostatin inhibition; settings: Method A: Myostatin 10 ng/mL; read-out: IC50 (Luciferase) Myostatin HepG2
T1 construct: active myostatin (also called mature myostatin) is a homodimer consisting of two C-terminal growth factor domains; purchased R&D systems 788-G8/CF
T1 sequence (O14793 267-375): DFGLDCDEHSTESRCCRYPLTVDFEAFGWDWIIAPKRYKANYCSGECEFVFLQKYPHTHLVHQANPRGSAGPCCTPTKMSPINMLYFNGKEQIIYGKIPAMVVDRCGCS
How it was run: (§1)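 HepG2 cells transfected with pGL3(CAGA)12-luciferase reporter, serum-starved in 0.1% BSA medium, then stimulated with myostatin or GDF-11 plus 4-fold peptide dilutions (0.006–100 nmol/L for myostatin, 0.12–2000 nmol/L for GDF-11) for 20–24 h at 37 °C. Luminescence read with One-Glo; IC50 calculated.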

[2] = tested on: Myostatin; experiment: as above; settings: Method A; GDF-11 IC50 versus Myostatin IC50
How it was run: as §1

[3] = target: T2, GDF-11 (Homo sapiens, UniProt O95390); experiment: Reporter gene assay for myostatin signaling in HepG2 cell line, Evaluation Procedure (1), GDF-11 inhibition; settings: Method A: GDF-11 10 ng/mL; read-out: IC50 (Luciferase) GDF-11 HepG2
T2 construct: purchased R&D systems 1958-GD-G8/CF
T2 sequence (O95390 299-407): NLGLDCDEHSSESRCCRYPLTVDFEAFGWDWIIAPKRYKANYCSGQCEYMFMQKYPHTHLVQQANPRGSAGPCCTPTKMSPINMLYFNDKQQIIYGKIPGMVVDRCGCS
How it was run: as §1

SMILES	IC50 [1] [nM]	IC50 [3] [nM]	Selectivity [2]
CC[C@H](C)[C@@H]1NC(=O)[C@H](Cc2ccccc2)N(C)C(=O)[C@H](Cc2ccc(O)cc2)NC(=O)[C@H](Cc2c[nH]c3ccccc23)NC(=O)[C@H](C)NC(=O)CN(CCCC(=O)O)C(=O)CSC[C@H](C(=O)O)NC(=O)[C@H](Cc2ccccc2)N(C)C(=O)[C@H](C)N(C)C(=O)[C@H](CC(C)C)NC(=O)[C@H](Cc2ccccc2)N(C)C(=O)[C@H](CCCNC(=N)N)NC(=O)[C@H](Cc2ccc(OCC(=O)O)cc2)NC(=O)[C@H](Cc2cccc(OCC(=O)O)c2)NC(=O)[C@H](C)N(C)C1=O [Myostatin_99_v124] ({CH2CO}-[Gly(N(CH2)3COOH)]AWY[NMeF]I[NMeA][Phe(3-OCH2COOH)]Y(Carboxymethyl)R[NMeF]L[NMeA][NMeF][dC]-OH; thioether N-15)	17.1	2270	133
CC(C)C[C@@H]1NC(=O)[C@H](Cc2ccccc2)N(C)C(=O)[C@H](CCCNC(=N)N)NC(=O)[C@H](Cc2ccc(OCC(=O)O)cc2)NC(=O)[C@H](Cc2cccc(OCC(=O)O)c2)NC(=O)[C@H](C)N(C)C(=O)[C@H](C2CCCC2)NC(=O)[C@H](Cc2ccccc2)N(C)C(=O)[C@H](Cc2ccc(O)cc2)NC(=O)[C@H](Cc2ccc(-c3ccncc3)cc2)NC(=O)[C@H](C)NC(=O)CN(CCCC(=O)O)C(=O)CSC[C@H](C(=O)O)NC(=O)[C@H](Cc2ccccc2)N(C)C(=O)[C@H](C)N(C)C1=O [Myostatin_99_v135] ({CH2CO}-[Gly(N(CH2)3COOH)]A[Phe(4-(4-pyridyl))]Y[NMeF][Gly(cPent)][NMeA][Phe(3-OCH2COOH)]Y(Carboxymethyl)R[NMeF]L[NMeA][NMeF][dC]-OH; thioether N-15)	22.6	3290	145
CC[C@H](C)[C@@H]1NC(=O)[C@H](Cc2ccccc2)N(C)C(=O)[C@H](Cc2ccc(O)cc2)NC(=O)[C@H](Cc2c[nH]c3ccccc23)NC(=O)[C@H](C)NC(=O)CN(CCCC(=O)O)C(=O)CSC[C@H](C(=O)O)NC(=O)[C@H](Cc2ccccc2)N(C)C(=O)[C@H](C)N(C)C(=O)[C@H](CC(C)C)NC(=O)[C@H](Cc2ccccc2)N(C)C(=O)[C@H](CCCNC(=N)N)NC(=O)[C@H](Cc2ccc(C(=O)O)cc2)NC(=O)[C@H](Cc2cccc(OCC(=O)O)c2)NC(=O)[C@H](C)N(C)C1=O [Myostatin_99_v144] ({CH2CO}-[Gly(N(CH2)3COOH)]AWY[NMeF]I[NMeA][Phe(3-OCH2COOH)][Phe(4-COOH)]R[NMeF]L[NMeA][NMeF][dC]-OH; thioether N-15)	16.3	2760	169

Now from value to molecule, other results behind:

IC50 [1] [nM]	IC50 [3] [nM]	SMILES	Selectivity [2]
1.5	439	CCCCCCC[C@@H]1NC(=O)[C@H](Cc2ccccc2)N(C)C(=O)[C@H](CCCNC(=N)N)NC(=O)[C@H](Cc2ccc(C(=O)O)cc2)NC(=O)[C@H](Cc2cccc(OCC(=O)O)c2)NC(=O)[C@H](C)N(C)C(=O)[C@H]([C@@H](C)CC)NC(=O)[C@H](Cc2ccccc2)N(C)C(=O)[C@H](Cc2ccc(O)cc2)NC(=O)[C@H](Cc2c[nH]c3ncccc23)NC(=O)[C@H](C)NC(=O)CN(CCCC(=O)O)C(=O)CSC[C@H](C(=O)O)NC(=O)[C@H](Cc2ccccc2)N(C)C(=O)[C@H](C)N(C)C1=O [Myostatin_99_v148] ({CH2CO}-[Gly(N(CH2)3COOH)]A[Trp(7-aza)]Y[NMeF]I[NMeA][Phe(3-OCH2COOH)][Phe(4-COOH)]R[NMeF][X1][NMeA][NMeF][dC]-OH; thioether N-15)	293
1.7	395	CCCCCCC[C@@H]1NC(=O)[C@H](Cc2ccccc2)N(C)C(=O)[C@H](CCCNC(=N)N)NC(=O)[C@H](Cc2ccc(OCC(=O)O)cc2)NC(=O)[C@H](Cc2cccc(OCC(=O)O)c2)NC(=O)[C@H](C)N(C)C(=O)[C@H]([C@@H](C)CC)NC(=O)[C@H](Cc2ccccc2)N(C)C(=O)[C@H](Cc2ccc(O)cc2)NC(=O)[C@H](Cc2c[nH]c3ccccc23)NC(=O)[C@H](C)NC(=O)CN(CCCC(=O)O)C(=O)CSC[C@H](C(=O)O)NC(=O)[C@H](Cc2ccccc2)N(C)C(=O)[C@H](C)N(C)C1=O [Myostatin_99_v150] ({CH2CO}-[Gly(N(CH2)3COOH)]AWY[NMeF]I[NMeA][Phe(3-OCH2COOH)]Y(Carboxymethyl)R[NMeF][X1][NMeA][NMeF][dC]-OH; thioether N-15)	232
